According to patent US20030064426A1, “Reagents and methods for identifying and modulating expression of genes regulated by CDK inhibitors” (priority 2001, published 2003):

Key:
[1] = system: human fibrosarcoma cell line HS 15.T; assay: Mitogenic activity assay, 3H-thymidine incorporation; type: cell-based; settings: HS 15.T cells
Description: (§1) To verify the induction of secreted mitogenic and anti-apoptotic factors by p21, conditioned media from IPTG-treated p21-9 cells were tested to investigate whether they would have an effect on cell growth and apoptosis. In these experiments, conditioned media were prepared by plating 10^6 p21-9 cells per 15 cm plate in the presence of DMEM/10% FCS. The next day, IPTG was added to a final concentration of 50 μM, and this media was replaced three days later with DMEM supplemented with 0.5% FCS and 50 μM IPTG. Two days later (days 3-5 of IPTG treatment), this conditioned media was collected and stored at 4° C. up to 15 days before use. Control media were prepared by adding IPTG-free DMEM/0.5% FCS to untreated cells grown to the same density as IPTG-treated cells and collecting the media two days thereafter.
The slow-growing human fibrosarcoma cell line HS 15.T was used to detect mitogenic activity in these conditioned media. For mitogenic activity assays, both types of conditioned media, as well as fresh media and 1:1 mixtures of conditioned media and fresh media were used to test mitogenic activity. In these experiments, the conditioned media were supplemented with 1% or 2% FCS. […] Cells were then collected and their ^3H-thymidine incorporation determined as described by Mosca et al. (1992, Mol. Cell. Biol. 12: 4375-4383).

[2] = system: induction of luciferase expression by p21 from the NK4 promoter in LuNK4p21 cells; assay: Luciferase assay in LuNK4p21 cell line (NK4 promoter-luciferase, IPTG-inducible p21); type: cell-based, human; settings: for induction of luciferase expression by IPTG in the presence of NSAID: 20 hr treatment after 16 hrs with 50 μM IPTG
Description: To develop a stably transfected cell line with p21-regulated luciferase expression, the NK4 promoter-luciferase construct, described in Example 8 and termed pLuNK4, was introduced into HT1080 p21-9 cells, which carry IPTG-inducible p21, by cotransfection with pBabePuro carrying puromycin N-acetyltransferase as a selectable marker. Transfection was carried out using LIPOFECTAMTNE 2000 (Life Technologies, Inc., Gaithersburg, Md.), using a 10:1 ratio of pLuNK4 and pBabePuro. Stable transfectants were selected using 1 μg/mL puromycin for 5 days.
This assay was performed as follows. Cells were plated at a density of 40,000 cells/well in 12 well plates in 1 mL of media containing penicillin/streptomycin, glutamine and 10% fetal calf serum (FCS). After attachment, cells were treated with 50 μM IPTG or left untreated for different periods of time. Luciferase activity was then measured as described in Example 8 above. An additional aliquot was removed from the cell lysate to measure protein concentration using the Bio-Rad protein assay kit (Bradford assay). Luciferase activity for each sample was normalized to protein content and expressed as luciferase activity/μg protein.
Luciferase assays were performed substantially as described in Example 9. Luciferase activity was measured after 16 hrs of incubation with or without 50 μM IPTG, followed by an additional 20 hr treatment in the presence or in the absence of 20 mM sodium salicylate, 1 mM sulindac, or 10 mM aspirin. […] NSAID concentrations were based on the pharmacologic concentrations of these agents in the serum of patients required for their anti-inflammatory properties (Yin et al., 1998, ibid.).

[3] = system: mouse embryo fibroblast line C8; assay: Apoptosis assay in serum-starved C8 cells; type: cell-based
Description: as §1
The effect of this conditioned media on apoptosis was also determined. These experiments used a mouse embryo fibroblast line C8, immortalized by E1A. […] Apoptosis was analyzed by plating 3×10^5 C8 cells per 6-cm plate, and replacing the media on the following day with fresh media supplemented with 0.4% serum or with conditioned media (no fresh serum added). DNA content analysis and DAPI staining were carried out after 24 hrs and 48 hrs, and relative cell numbers were measured by methylene blue staining (Perry et al., 1992, Mutat. Res. 276: 189-197) after 48 hrs in low-serum media.

[4] = system: NFκB transcriptional activity (pNFkB-Luc) in HT1080 p21-9 cells; assay: Transient transfection assay with pNFkB-Luc in HT1080 p21-9 cells; type: cell-based, human; settings: 50 μM IPTG three days; pNFkB-Luc mixed with negative control E1AΔN/C
Description: Plasmid clones for each promoter construct were tested for p21-regulation by a transient transfection assay. Transient transfection of HT1080 p21-9 cells was carried out by electroporation, essentially as described in the Bio-Rad protocols. For each electroporation, p21-9 cells were grown to confluence in 15 cm plates using DMEM supplemented with 10% FC2 serum and containing penicillin, streptomycin and glutamine.. The cells were then trypsinized, resuspended in Opti-MEM medium (GibcoBRL) and spun down at 1,000 rpm in an IEC HN-SII centrifuge for 10 minutes. Following centrifugation the media were aspirated and the cells were again resuspended in Opti-MEM at a concentration of 18-20 million cells per ml. […] In preliminary experiments, cell survival and attachment after electroporation was determined to be approximately 33%. […] Luciferase activity was measured using a Turner 20/20 luminometer at 52.1% sensitivity with a 5 second delay period and 10-15 second integration time.
To determine if IPTG-inducible p21 expression in HT 1080 p21-9 cells stimulates the transcriptional activity of NFκB, we have used transient transfection assays to investigate the effect of p21 induction on luciferase expression from the plasmid pNFkB-Luc, commercially available from Stratagene. […] The luciferase activity was measured and normalized to protein content in each sample.

[5] = system: RNA expression of the endogenous p21-inducible genes in LuNK4p21 cells; assay: RT-PCR of endogenous p21-inducible genes in LuNK4p21 cells; type: cell-based, human
Description: To determine whether NFκB-inhibiting NSAID inhibited not only the induction of transcription from the NK4 promoter but also RNA expression of the endogenous p21-inducible genes, LuNK4p21 cells were plated at 125,000 cells per well in 6-well plates and were either untreated or treated with 50 μM IPTG for 48 hrs (the period of time required for maximal stimulation of p21 -inducible genes; Chang et al., 2000, Proc. Natl. Acad. Sci. USA 97: 4291-4296), in the presence or in the absence of sulindac, at 250 μM, 500 μM or 1 mM concentrations. After this incubation, RNA was extracted from the cells using Qiagen RNeasy Mini Kit, and relative RNA levels of several p21-inducible genes were determined by reverse transcription-PCR (RT-PCR), essentially as described by Noonan et al. (1990, Proc. Natl. Acad. Sci. USA 87: 7160-7164), except that β-actin rather than β2-microglobulin was used for cDNA normalization. The PCR cycles were as follows: for the 1st cycle, 3 min for denaturation, 2 min for annealing and 2 min for extension, and the rest of cycles, 30 sec for denaturation; 30 sec for annealing; and 1 min for extension.

[6] = sulindac 250 μM, 500 μM or 1 mM

CC(C)S[C@@H]1O[C@H](CO)[C@H](O)[C@H](O)[C@H]1O [IPTG, isopropyl-β-thiogalactoside]
effect of the addition of IPTG to fresh media on 3H-thymidine incorporation [1]: no effect
increase of luciferase expression by IPTG ([2]; 50 μM IPTG, absence of NSAID): 3-4 fold
increase in luciferase levels in IPTG-treated cells ([2]; LuNK4p21 cell line, about 17 hrs): approximately 3 fold
effect of IPTG by itself on apoptosis [3]: no effect
induction of pNFkB-Luc luciferase in the presence of IPTG [4]: up to 15 fold

CC(=O)Oc1ccccc1C(=O)O [aspirin]
induction of luciferase expression by IPTG in the presence of NSAID ([2]; 10 mM aspirin): completely or almost completely abolished

CC(C)Cc1ccc(C(C)C(=O)O)cc1 (stereo not shown) [ibuprofen]
induction of luciferase expression by IPTG in the presence of NSAID ([2]; 25 μM): no significant difference

COc1ccc2c(c1)c(CC(=O)O)c(C)n2C(=O)c1ccc(Cl)cc1 [indomethacin]
induction of luciferase expression by IPTG in the presence of NSAID ([2]; 25 μM): no significant difference

O=C([O-])c1ccccc1O.[Na+] [salicylate, sodium salicylate]
induction of luciferase expression by IPTG in the presence of NSAID ([2]; 20 mM sodium salicylate): completely or almost completely abolished

CC1=C(CC(=O)O)c2cc(F)ccc2/C1=C\c1ccc([S+](C)[O-])cc1 (stereo not shown) [sulindac]
effects of IPTG on the APP gene (RT-PCR) ([5]; 250 and 500 μM sulindac): diminished
gene expression of all the other tested genes (RT-PCR) ([5]; absence of IPTG, sulindac 250 μM, 500 μM or 1 mM): dose-dependent increase
NK4 gene expression (RT-PCR) ([5]; absence of IPTG, sulindac 250 μM, 500 μM or 1 mM, 48 hrs): very little effect
ability of p21 to induce transcription for most of the tested genes ([5]; moderate dose of sulindac (250 μM)): inhibits
effects of IPTG on the CTGF gene (RT-PCR) ([5]; only by 250 μM sulindac): diminished
effects of IPTG on the Mac2-binding protein (Mac2-BP) gene (RT-PCR) ([5]; only by 250 μM sulindac): diminished
effects of IPTG on the p66Shc gene (RT-PCR) ([5]; only by 250 μM sulindac): diminished
NK4 RNA levels (RT-PCR) ([5]; presence of 50 μM IPTG, sulindac 250 μM, 500 μM or 1 mM, 48 hrs): dose-dependent decrease
gene expression of the other tested genes (RT-PCR) ([5]; presence of IPTG, highest tested dose of sulindac (1 mM)): did not decrease
IPTG-induced RNA levels of prosaposin (RT-PCR) [5, 6]: None of the tested sulindac concentrations produced a significant decrease
IPTG-induced RNA levels of superoxide dismutase 2 (SOD2) (RT-PCR) [5, 6]: None of the tested sulindac concentrations produced a significant decrease
t-TGase RNA (RT-PCR), compared with NK4 ([5]; with and without 50 μM IPTG, sulindac 250 μM, 500 μM or 1 mM, 48 hrs): Very similar results
induction of luciferase expression by IPTG in the presence of NSAID ([2]; 1 mM sulindac): completely or almost completely abolished
